Results on 1 molecule are retold here after patent US20050038113A1, “Valproic acid and derivatives for the combinatorial therapeutic treatment of human cancers and for the treatment of tumor metastasis and minimal residual disease” (G2M Cancer Drugs AG, priority 2001, published 2005).

The subject of series [1] is mouse embryos. Conditions: when properly dosed; cited from earlier work.
The subject of series [2] is primary AML blasts from AML patients. Briefly: ex vivo differentiation, viability and apoptosis of leukemic blasts. Format: cell-based, human. Conditions: for myeloid differentiation: M0, M2 and M4 FAB subtypes. How it is done: Each point represents the mean of a set of data determined in triplicate (Example 15). VPA may cause synergistic therapeutic responses.
Cases were classified according to the French-American-British (FAB) classification (Bennett et al., Ann Intern Med 103, 1985). Cytogenetic analysis and RT-PCR tests were performed to rule out the presence of the APL associated fusion genes according to standard methods as described (Mandelli et al., Blood 90, 1997; Mancini et al., Br J Haematol. 91, 1995; Grimwade et al., Blood 90, 1999).

Series [3] deals with A431 squamous cell carcinoma cells. Nature of the series: MTT cell viability assay. The class given is cell-based, Human. Conditions: for cell viability: single reagent, valproic acid 3 mM. The procedure:
(§1) Human MDA-MB468, MDA-MB453 and SKBR3 breast carcinoma cells and A431 squamous cell carcinoma cells were maintained in Dulbecco's modified Eagle's medium (DMEM, BioWhittaker, Verviers, Belgium) supplemented with 10% heat inactivated fetal bovine serum (FBS), 2 mM L-glutamine, 100 units/ml penicillin, and 100 μg/ml streptomycin.
(§2) Tumor cells were seeded in 96 well plates at a density of 1×10^4 cells/well in normal growth medium. […] Control cells were grown in the absence of valproic acid or antibodies. 10 μl of 10 mg/ml 3-(4,5-dimethylthiazole-2-yl)-2,5 diphenyltetrazolium bromide (MTT) (Sigma, Deisenhofen, Germany) in PBS were added to each well and the cells were incubated for another 3 h. Cells were lysed by the addition of 90 μl of lysis buffer (20% SDS in 50% dimethyl formamide, pH 4.7). After solubilization of the formazan product, the absorption at 590 nm was determined in a microplate reader (Dynatech, Denkendorf, Germany) and the relative amount of viable cells in comparison to cells cultured without the addition of valproic acid or antibodies was calculated.
(§3) Human SKBR3 breast carcinoma cells, A431 squamous cell carcinoma cells and SKOV3 ovarian carcinoma cells were maintained in Dulbecco's modified Eagle's medium (DMEM, BioWhittaker, Verviers, Belgium) supplemented with 10% heat-inactivated fetal bovine serum (FBS), 2 mM L-glutamine, 100 units/ml penicillin, and 100 μg/ml streptomycin.
(§4) Tumor cells were seeded in 96 well plates at a density of 1×10^4 cells/well in normal growth medium. […] Renca-lacZ/ErbB2, Renca-lacZ/EGFR and Renca-lacZ/EGFRvIII cells were treated for 40 h with valproic acid at a final concentration of 1 mM, or 10 ng/ml of the recombinant anti-ErbB2 single chain antibody-toxin scFv(FRP5)-ETA, or 1 ng/ml of the recombinant anti-EGF receptor single chain antibody-toxin scFv(14E1)-ETA, or a combination of valproic acid with either scFv(FRP5)-ETA or scFv(14E1)-ETA at the same concentrations. Control cells were grown in the absence of valproic acid or antibody-toxins. Ten μl of 10 mg/ml 3-(4,5-dimethylthiazole-2-yl)-2,5 diphenyltetrazolium bromide (MTT) (Sigma, Deisenhofen, Germany) in PBS were added to each well and the cells were incubated for another 3 h. Cells were lysed by the addition of 90 μl of lysis buffer (20% SDS in 50% dimethyl formamide, pH 4.7). After solubilization of the formazan product, the absorption at 590 nm was determined in a microplate reader (Dynatech, Denkendorf, Germany) and the relative amount of viable cells in comparison to cells cultured without the addition of valproic acid or antibody-toxins was calculated.
(In general: Tetrazolium assays rely on reduction of a dye to a coloured formazan, in cell work by metabolically active cells.)

The test system of series [4] is SKBR3 breast carcinoma cells. Briefly: MTT cell viability assay. The class given is cell-based, Human. Conditions: for cell viability: single reagent, valproic acid 3 mM. How it is done:
as §1, §2, §3, §4

The nature of series [5]: dose finding experiment, VPA serum levels. The class given is in vivo, rat. Conditions: chosen dosage protocol. The procedure: MT450 cells were grown in DMEM/W10% FCS medium and tested for absence of mycoplasms just prior to injection. Cells were washed twice in PBS and suspended to a density of 5×10^6 cells per ml of PBS. 5×10^5 cells in 0.1 ml of PBS were injected into each rat. […] Rats were left to grow primary tumors for 21 days. […] The solution was sterile filtered. The compound was applied by i.p. injection. […] Two doses per day were applied. Control animals received equal amounts of a sterile isotonic sodium chloride solution.
The experiment was terminated when tumor size in one of the rats of the control group had reached the legal limit of 50 mm. Necropsy at that time was performed on all rats of the experiment to assess lung metastasis. […] Metastasis was also found in 7 out of 8 VPA-treated rats. However, size and number of metastases were much smaller compared to NaCl-treated rats. A dose finding experiment had shown that the chosen dosage protocol lead to high initial serum levels (e.g. 3.6 mM at 1 hour after i.p. injection) which rapidly dropped (e.g. 0.25 mM at 4 hours after i.p. injection) below those levels which are maintained during therapy of epilepsy in human.

[6] abbreviates: 3 mM valproic acid + 10 ng/ml scFv(14E1)-ETA, 40 h.
Setting [7] is: 3 mM valproic acid + 10 ng/ml scFv(FRP5)-ETA, 40 h.
The mark [8] stands for this setting: 40 h, scFv(FRP5)-ETA 10 ng/ml, scFv(14E1)-ETA 10 ng/ml.

As for `CCCC(CCC)C(=O)O` [VPA, 2-propylpentanoic acid], the teratogenicity result in series [1] is “teratogenic in the majority of mouse embryos”. Moreover, the myeloid differentiation result in series [2] (VPA as a single agent) is “partial myeloid differentiation”; in series [2] (VPA in combination with RA), “complete and thus synergistic myeloid differentiation”. Besides, the “positive cells in the NBT dye reduction assay” value in series [2] (VPA in combination with RA) is on record as “up to 65%”. For the same molecule, in series [2] (VPA in combination with RA, 3 and 2 cases studied), the “myeloid differentiation of blasts from primary or relapsed AMLs” value is recorded as “induced myeloid differentiation”. Further, the induction of apoptosis result in series [2] (combination of VPA plus RA compared to VPA or RA alone) is recorded as “strongly enhanced, often in a synergistic fashion”. In addition, in series [2] (single agent, 4 cases tested), the “apoptosis of AML blasts (FACS, propidium-iodide)” value is on record as “effective in inducing apoptosis”. The “cell viability, combination treatment” value in series [3] (3 mM VPA + 2 μg/ml c225, 70 h) is “synergistic reduction of cell viability”; in series [3] (setting [6]) it was “pronounced additive therapeutic effect”; in series [3] (setting [7]), “pronounced additive therapeutic effect”; in series [4] (setting [6]), “pronounced additive therapeutic effect”; in series [4] (setting [7]), “pronounced additive therapeutic effect”; in series [4] (3 mM valproic acid + 2 μg/ml Herceptin, 70 h) it was “pronounced additive therapeutic effect”. The cell viability entry in series [3] (setting [8]) is recorded as “inhibit the viability”; in series [3] (70 h, c225 2 μg/ml), “inhibit the viability”; in series [4] (setting [8]), “inhibit the viability”; in series [4] (70 h, Herceptin 2 μg/ml), “inhibit the viability”. In addition, the figures for the serum level in series [5] (1 hour after i.p. injection) and in series [5] (4 hours after i.p. injection) were 3600 µM and 250 µM, respectively.
